Reference: patent US8338473B2, “Derivatives of psammaplin A, a method for their synthesis and their uses for the prevention or treatment of cancer” (Centre National de la Recherche Scientifique, priority 2007, dated 2012)

Legend:
HDAC4 = HDAC4 (Homo sapiens, UniProt P56524); assay: HDAC4 enzymatic assay (IP-HDAC4, 3H-acetyl release); assay type: biochemical; details: IP-HDAC4 incubated with inhibitor 24 hrs
Experimental: (§1) FIG. 1: a) Cell cycle analysis of U937 cells treated for 30 hrs with the indicated compounds used at 1 and 5 μM; b) Caspase 3 apoptotic assay of the indicated compounds after 24 hrs of treatment in the U937 cells; c) Tubulin acetylation and p21 expression levels at 6 and 16 hrs after treatment with the indicated compounds; total tubulin expression levels are used for equal loading; d) Histone H3 acetylation and K9 H3 methylation expression levels at 6 and 16 hrs after treatment with the indicated compounds; total tubulin expression levels are used for equal loading; e) K9, K14, K18 histone H3 acetylation expression levels at 6 and 16 hrs after treatment with the indicated compounds; total ERKs expression levels are used for equal loading; f) HDAC1 enzymatic assay: IP-HDAC1 is incubated with the indicated inhibitors for 24 Hrs; activity is measured as ^3H-acetyl release; g) HDAC4 enzymatic assay: IP-HDAC4 is incubated with the indicated inhibitors for 24 hrs; activity is measured as ^3H-acetyl release.

p16INK4a promoter = assay: Methylation specific PCR for the p16 gene; assay type: cell-based; details: 24 hrs
Experimental: (§2) FIG. 2: a) Methylation specific PCR for the RARβ gene after 16 and 24 hrs of treatment with the indicated compounds; b) Methylation specific PCR for the p16 gene after 24 hrs of the indicated treatments. Samples are representative of real duplicates; c) p16 expression levels in U937 cells after 24 hrs with the indicated treatments; d) DNMT enzymatic in vitro assay carried out with 1.5 and 50 μM of the indicated compounds;
DNA extraction was performed as described below. Bisulfite treatment and PCR for the determination of p16 methylation was performed as described from the suppliers (Chemicon).

[1] = tested on: breast cancer cells (ZR75.1); assay: Anti-proliferative and apoptogenic action in breast cancer cells; assay type: cell-based; details: data not shown
[2] = tested on: ex vivo AML patient blasts; assay: Cell cycle and apoptosis in ex vivo AML patient blasts; assay type: cell-based, human
Experimental: FIG. 4: a) Cell cycle analyses and apoptosis carried out in ex vivo samples from AML patients identified with numbers; b) Cell cycle analysis, apoptosis and histone H3 acetylation levels of #116 AML cells after 20 hrs is of the indicated treatments.
Human leukemia cell line U937 was propagated in RPMI medium supplemented with 10% FBS (Foetal bovine serum; Hyclone) and antibiotics (100 U/mL penicillin, 100 μg/mL streptomycin and 250 ng/mL amphotericin-B). Cells were kept at the constant concentration of 200000 cells per milliliter of culture medium. For AML samples, bone marrow containing 80% to 90% leukemic blasts was purified over Ficoll. This study was approved by the Ethical Committee of the Second University of Naples.

human recombinant SIRT2 = human recombinant SIRT2 (Homo sapiens, UniProt Q8IXJ6); assay: SIRT activity assay, SIRT2; assay type: biochemical
Experimental: FIG. 13A: % of SIRT1 and SIRT2 activity with controls, sodium suramine, a sirtuin inhibitor, and resveratrol a SIRT1 activator, and with UVI5008 at concentrations of 50 μM and 5 μM.
The SIRT activity assay was performed using the human recombinant SIRT1 and SIRT2. SIRT1 (1 U/well) or SIRT2 (5 U/well), respectively, were incubated (37° C. for 1 h) with the SIRT1/2 substrate (corresponding to a p53 acetylated peptide) in the presence of NAD^+ and various concentrations of tested compounds (sirtuins activators or inhibitors). Activity was measured as fluorescence intensity. As internal controls, sodium suramin, a sirtuin inhibitor, and resveratrol, a SIRT1 activator, have been included. The fluorescence was measured on a fluorometric reader (Inphinite 200 TECAN) with excitation set at 360 nm and emission detection set at 460 nm

HCT-116 cells = assay: MTT cytotoxicity assay, HCT-116; details: read-out: IC50 values, MTT cytotoxicity assay; HCT-116, 48 h
Experimental: (§3) Plates were kept in the humidified CO2 (5%) incubator overnight so that cells get attached to the bottom. […] Viable cells cleave the MTT tetrazolium ring into a dark blue formazan reaction product, whereas dead cells remain colorless. The MTT-containing medium was gently removed and DMSO was added in each well. After shaking, the plates were read in absorbance at 540 nm. All results are expressed as the average of three wells. Percent cytotoxicity was measured of each compound and represented in terms of its IC50 values.

p21WAF1/CIP1 = assay: p21 expression, Western blot in U937 cells; assay type: cell-based, human; details: U937, 6 and 16 hrs
Experimental: as §1
FIG. 3: a) Cell cycle and apoptosis analysis carried out in U937 cells after 24 hrs with the indicated compounds; values are media of independent triplicates; b) CD11c expression analysis carried out in U937 cells with the indicated compounds; values are media of independent duplicates; c) Tubuline acetylation and p21 expression levels in U937 cells after 24 hrs with the indicated treatments; total ERKs expression levels are used for equal loading; d) acetylation of histone H3 under the conditions indicated in (c).
For the determination of p21^WAF1/CIP1 and p16^INK4 100 μg of total protein extracts were separated on a 15% polyacrylammide gels and blotted. Western blots were shown for p21 (Transduction Laboratories, dilution 1:500), p16 (Santa Cruz) and total ERKs (Santa Cruz) were used to normalise for equal loading. For alpha-tubulin acetylation 25 μg of total protein extracts were separated on a 10% polyacrylamide gels and blotted. […]

A-375 cells = assay: MTT cytotoxicity assay, A-375; details: read-out: IC50 values, MTT cytotoxicity assay; A-375, 48 h
Experimental: as §3

U937 cells = assay: Caspase 3 apoptotic assay in U937 cells; assay type: cell-based, human; details: U937, 24 hrs
Experimental: as §1

histone H3 = assay: Histone H3 acetylation and K9 H3 methylation levels in U937 cells; assay type: cell-based, human; details: U937, 6 and 16 hrs
Experimental: as §1
For the determination of p21^WAF1/CIP1 and p16^INK4 100 μg of total protein extracts were separated on a 15% polyacrylammide gels and blotted. Western blots were shown for p21 (Transduction Laboratories, dilution 1:500), p16 (Santa Cruz) and total ERKs (Santa Cruz) were used to normalise for equal loading. For alpha-tubulin acetylation 25 μg of total protein extracts were separated on a 10% polyacrylamide gels and blotted. Western blots were shown for acetylated alpha-tubulin (Sigma, dilution 1:500) and total ERKs (Santa Cruz) or total tubulin (Sigma) were used to normalise for equal loading.

HDAC6 = target: T1, HDAC6 (Homo sapiens, UniProt Q9UBN7); assay: Alpha tubulin acetylation in U937 cells (HDAC6 readout); assay type: cell-based; details: U937, 6 and 16 hrs
T1 construct: Tubuline acetylation and p21 expression levels in U937 cells after 24 hrs with the indicated treatments; endogenous in cells; host or cells: U937
Experimental: as §1, with “release. […]” for “release.”

[3] = tested on: DNA methyltransferase (DNMT); assay: DNMT enzymatic in vitro assay; assay type: biochemical; details: 1.5 and 50 μM
Experimental: as §2

Sequence of HDAC4 (P56524 whole entry, species assumed): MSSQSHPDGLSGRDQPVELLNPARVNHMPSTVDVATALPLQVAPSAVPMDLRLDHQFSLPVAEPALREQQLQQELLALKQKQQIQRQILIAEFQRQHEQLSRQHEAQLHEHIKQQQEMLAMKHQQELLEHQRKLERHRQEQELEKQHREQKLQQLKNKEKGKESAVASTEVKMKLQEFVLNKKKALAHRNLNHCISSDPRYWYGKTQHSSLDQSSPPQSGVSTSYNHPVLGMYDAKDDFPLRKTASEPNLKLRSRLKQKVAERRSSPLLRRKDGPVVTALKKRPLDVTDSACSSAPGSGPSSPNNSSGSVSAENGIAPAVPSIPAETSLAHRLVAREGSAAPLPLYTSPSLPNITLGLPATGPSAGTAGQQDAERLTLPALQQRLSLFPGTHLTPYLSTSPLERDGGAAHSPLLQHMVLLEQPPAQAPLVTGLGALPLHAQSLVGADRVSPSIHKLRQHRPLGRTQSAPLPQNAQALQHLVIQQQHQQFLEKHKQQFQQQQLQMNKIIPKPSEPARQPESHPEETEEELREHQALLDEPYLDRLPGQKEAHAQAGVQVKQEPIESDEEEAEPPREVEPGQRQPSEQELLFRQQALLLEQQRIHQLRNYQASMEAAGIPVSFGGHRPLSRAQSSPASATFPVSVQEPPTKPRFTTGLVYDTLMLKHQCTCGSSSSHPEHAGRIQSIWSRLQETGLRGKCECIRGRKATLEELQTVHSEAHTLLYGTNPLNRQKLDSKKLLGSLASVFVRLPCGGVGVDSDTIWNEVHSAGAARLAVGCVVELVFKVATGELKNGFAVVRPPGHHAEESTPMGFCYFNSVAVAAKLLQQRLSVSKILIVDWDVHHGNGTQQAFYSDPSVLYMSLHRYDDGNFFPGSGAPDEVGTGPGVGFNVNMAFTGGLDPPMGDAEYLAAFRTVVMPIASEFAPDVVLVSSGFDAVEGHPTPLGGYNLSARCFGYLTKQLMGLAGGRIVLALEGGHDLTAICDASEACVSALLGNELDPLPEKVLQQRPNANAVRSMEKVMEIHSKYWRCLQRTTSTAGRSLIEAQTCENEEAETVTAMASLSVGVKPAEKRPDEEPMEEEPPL
Sequence of HDAC4 (O15379 whole entry partner, species assumed): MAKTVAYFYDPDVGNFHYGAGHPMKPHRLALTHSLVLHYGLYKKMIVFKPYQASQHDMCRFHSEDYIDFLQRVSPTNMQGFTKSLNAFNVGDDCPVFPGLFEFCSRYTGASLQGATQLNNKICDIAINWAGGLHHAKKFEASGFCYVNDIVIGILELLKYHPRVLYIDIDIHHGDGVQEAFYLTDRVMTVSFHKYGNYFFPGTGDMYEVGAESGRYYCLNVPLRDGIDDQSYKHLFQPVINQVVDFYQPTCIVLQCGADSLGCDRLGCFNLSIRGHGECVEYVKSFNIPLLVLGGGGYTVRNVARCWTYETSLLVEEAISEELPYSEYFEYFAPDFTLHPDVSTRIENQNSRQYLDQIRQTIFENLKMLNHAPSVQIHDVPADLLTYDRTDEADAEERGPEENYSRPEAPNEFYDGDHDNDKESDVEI
T1 sequence (Q9UBN7 whole entry): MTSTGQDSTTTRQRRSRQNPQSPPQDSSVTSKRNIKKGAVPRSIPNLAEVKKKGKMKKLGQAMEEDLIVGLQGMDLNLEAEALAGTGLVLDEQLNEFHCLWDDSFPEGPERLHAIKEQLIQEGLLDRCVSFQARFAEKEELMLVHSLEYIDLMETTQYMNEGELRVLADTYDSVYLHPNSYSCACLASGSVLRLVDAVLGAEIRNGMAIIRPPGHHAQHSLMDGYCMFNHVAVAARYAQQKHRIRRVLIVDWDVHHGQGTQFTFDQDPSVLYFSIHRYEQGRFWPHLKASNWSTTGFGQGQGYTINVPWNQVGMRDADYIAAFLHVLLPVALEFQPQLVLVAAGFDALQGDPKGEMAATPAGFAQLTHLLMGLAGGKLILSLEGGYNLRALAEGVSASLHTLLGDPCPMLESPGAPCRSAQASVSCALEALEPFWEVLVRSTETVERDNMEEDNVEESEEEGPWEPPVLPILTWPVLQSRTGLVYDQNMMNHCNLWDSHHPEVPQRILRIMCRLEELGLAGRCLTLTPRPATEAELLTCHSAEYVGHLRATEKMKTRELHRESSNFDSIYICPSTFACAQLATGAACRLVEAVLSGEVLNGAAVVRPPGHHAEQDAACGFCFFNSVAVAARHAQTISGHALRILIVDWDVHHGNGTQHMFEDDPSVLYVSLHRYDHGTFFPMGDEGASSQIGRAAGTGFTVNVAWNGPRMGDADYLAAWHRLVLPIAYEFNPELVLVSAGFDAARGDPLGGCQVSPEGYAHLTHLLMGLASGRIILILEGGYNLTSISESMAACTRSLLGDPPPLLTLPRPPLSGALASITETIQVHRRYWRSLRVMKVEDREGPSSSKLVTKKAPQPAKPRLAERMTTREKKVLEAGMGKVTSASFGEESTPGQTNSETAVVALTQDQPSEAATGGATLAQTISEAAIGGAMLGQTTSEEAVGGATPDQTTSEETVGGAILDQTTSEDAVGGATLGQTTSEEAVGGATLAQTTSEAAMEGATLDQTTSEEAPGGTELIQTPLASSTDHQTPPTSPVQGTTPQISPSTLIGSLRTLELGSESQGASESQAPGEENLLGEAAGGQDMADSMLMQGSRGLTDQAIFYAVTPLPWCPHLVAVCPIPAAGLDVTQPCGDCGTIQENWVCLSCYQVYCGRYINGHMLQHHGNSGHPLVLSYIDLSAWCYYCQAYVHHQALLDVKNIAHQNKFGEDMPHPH
Sequence of human recombinant SIRT2 (Q8IXJ6 whole entry): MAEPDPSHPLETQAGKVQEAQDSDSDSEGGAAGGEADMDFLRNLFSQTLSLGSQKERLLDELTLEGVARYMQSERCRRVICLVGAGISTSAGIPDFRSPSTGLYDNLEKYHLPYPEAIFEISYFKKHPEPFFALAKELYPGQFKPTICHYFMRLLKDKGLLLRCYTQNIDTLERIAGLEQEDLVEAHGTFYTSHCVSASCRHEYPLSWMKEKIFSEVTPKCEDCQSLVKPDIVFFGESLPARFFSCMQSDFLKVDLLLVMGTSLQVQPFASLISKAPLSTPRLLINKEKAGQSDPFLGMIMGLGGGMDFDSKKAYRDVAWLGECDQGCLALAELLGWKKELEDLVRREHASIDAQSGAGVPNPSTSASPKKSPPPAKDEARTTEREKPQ

SMILES: O=C(NCCSSCCNC(=O)C(Cc1c[nH]c2ccc(Br)cc12)=NO)C(Cc1c[nH]c2ccc(Br)cc12)=NO [UVI5008]
- HDAC4 deacetylase activity inhibition (HDAC4): nearly completely blocked
- unmethylated p16INK4a promoter DNA (MSP) (p16INK4a promoter): increased
- anti-proliferative and apoptogenic action [1]: confirmed
- apoptotic activity ([2]; 5 μM, two samples of patient blasts): showed an apoptotic activity
- cell cycle arrest and apoptosis (caspase 3 activation) ([2]; 4 ex vivo cultures, AML patients #102, #108, #109, #116): induced cell cycle arrest and apoptosis
- IC50 (human recombinant SIRT2): 7.8 µM
- IC50 (HCT-116 cells): 1.8 ± 0.1 µM
- expression of p21WAF1/CIP1 (p21WAF1/CIP1): dramatically increased
- IC50 (A-375 cells): 3.1 ± 0.5 µM
- apoptogenic effect (caspase 3) (U937 cells): strongest apoptogenic effect
- H3K9, H3K14 and H3K18 acetylations (histone H3): all increased
- global histone H3 acetylation (histone H3): dramatically enhanced
- methylation of H3K9 (histone H3): decreased
- inhibition of HDAC6 (alpha tubulin acetylation) (HDAC6): inhibited the activity of HDAC6
- DNMT inhibition [3]: nearly as active as RG108 albeit at higher concentrations
